According to paper PMC12172032, “Chemical and Genetic Validation of an Essential Calcium Entry Channel of Trypanosoma brucei as a Therapeutic Target” (ACS Infectious Diseases, 2025):

Biological target: T1, TbCaV (TbCav; FS179; TbCaCh) (Trypanosoma brucei, UniProt Q38BV7)
T1 construct: gene Tb10.70.4750; native full-length channel in intact T. brucei cells, 2693 aa, approx. 301 kDa, single subunit, untagged wild type
Assay: Ca2+ entry into intact T. brucei, Cal-590 fluorescence
Type: cell-based
Details: wild-type T. brucei BSF (Figure 9A inset); 1.8 mM Ca2+ added after 100 μM EGTA, BAG buffer pH 7.0; whole-cell Ca2+ entry attributed to TbCaV, direct binding not shown

T1 sequence (Q38BV7 1-2693): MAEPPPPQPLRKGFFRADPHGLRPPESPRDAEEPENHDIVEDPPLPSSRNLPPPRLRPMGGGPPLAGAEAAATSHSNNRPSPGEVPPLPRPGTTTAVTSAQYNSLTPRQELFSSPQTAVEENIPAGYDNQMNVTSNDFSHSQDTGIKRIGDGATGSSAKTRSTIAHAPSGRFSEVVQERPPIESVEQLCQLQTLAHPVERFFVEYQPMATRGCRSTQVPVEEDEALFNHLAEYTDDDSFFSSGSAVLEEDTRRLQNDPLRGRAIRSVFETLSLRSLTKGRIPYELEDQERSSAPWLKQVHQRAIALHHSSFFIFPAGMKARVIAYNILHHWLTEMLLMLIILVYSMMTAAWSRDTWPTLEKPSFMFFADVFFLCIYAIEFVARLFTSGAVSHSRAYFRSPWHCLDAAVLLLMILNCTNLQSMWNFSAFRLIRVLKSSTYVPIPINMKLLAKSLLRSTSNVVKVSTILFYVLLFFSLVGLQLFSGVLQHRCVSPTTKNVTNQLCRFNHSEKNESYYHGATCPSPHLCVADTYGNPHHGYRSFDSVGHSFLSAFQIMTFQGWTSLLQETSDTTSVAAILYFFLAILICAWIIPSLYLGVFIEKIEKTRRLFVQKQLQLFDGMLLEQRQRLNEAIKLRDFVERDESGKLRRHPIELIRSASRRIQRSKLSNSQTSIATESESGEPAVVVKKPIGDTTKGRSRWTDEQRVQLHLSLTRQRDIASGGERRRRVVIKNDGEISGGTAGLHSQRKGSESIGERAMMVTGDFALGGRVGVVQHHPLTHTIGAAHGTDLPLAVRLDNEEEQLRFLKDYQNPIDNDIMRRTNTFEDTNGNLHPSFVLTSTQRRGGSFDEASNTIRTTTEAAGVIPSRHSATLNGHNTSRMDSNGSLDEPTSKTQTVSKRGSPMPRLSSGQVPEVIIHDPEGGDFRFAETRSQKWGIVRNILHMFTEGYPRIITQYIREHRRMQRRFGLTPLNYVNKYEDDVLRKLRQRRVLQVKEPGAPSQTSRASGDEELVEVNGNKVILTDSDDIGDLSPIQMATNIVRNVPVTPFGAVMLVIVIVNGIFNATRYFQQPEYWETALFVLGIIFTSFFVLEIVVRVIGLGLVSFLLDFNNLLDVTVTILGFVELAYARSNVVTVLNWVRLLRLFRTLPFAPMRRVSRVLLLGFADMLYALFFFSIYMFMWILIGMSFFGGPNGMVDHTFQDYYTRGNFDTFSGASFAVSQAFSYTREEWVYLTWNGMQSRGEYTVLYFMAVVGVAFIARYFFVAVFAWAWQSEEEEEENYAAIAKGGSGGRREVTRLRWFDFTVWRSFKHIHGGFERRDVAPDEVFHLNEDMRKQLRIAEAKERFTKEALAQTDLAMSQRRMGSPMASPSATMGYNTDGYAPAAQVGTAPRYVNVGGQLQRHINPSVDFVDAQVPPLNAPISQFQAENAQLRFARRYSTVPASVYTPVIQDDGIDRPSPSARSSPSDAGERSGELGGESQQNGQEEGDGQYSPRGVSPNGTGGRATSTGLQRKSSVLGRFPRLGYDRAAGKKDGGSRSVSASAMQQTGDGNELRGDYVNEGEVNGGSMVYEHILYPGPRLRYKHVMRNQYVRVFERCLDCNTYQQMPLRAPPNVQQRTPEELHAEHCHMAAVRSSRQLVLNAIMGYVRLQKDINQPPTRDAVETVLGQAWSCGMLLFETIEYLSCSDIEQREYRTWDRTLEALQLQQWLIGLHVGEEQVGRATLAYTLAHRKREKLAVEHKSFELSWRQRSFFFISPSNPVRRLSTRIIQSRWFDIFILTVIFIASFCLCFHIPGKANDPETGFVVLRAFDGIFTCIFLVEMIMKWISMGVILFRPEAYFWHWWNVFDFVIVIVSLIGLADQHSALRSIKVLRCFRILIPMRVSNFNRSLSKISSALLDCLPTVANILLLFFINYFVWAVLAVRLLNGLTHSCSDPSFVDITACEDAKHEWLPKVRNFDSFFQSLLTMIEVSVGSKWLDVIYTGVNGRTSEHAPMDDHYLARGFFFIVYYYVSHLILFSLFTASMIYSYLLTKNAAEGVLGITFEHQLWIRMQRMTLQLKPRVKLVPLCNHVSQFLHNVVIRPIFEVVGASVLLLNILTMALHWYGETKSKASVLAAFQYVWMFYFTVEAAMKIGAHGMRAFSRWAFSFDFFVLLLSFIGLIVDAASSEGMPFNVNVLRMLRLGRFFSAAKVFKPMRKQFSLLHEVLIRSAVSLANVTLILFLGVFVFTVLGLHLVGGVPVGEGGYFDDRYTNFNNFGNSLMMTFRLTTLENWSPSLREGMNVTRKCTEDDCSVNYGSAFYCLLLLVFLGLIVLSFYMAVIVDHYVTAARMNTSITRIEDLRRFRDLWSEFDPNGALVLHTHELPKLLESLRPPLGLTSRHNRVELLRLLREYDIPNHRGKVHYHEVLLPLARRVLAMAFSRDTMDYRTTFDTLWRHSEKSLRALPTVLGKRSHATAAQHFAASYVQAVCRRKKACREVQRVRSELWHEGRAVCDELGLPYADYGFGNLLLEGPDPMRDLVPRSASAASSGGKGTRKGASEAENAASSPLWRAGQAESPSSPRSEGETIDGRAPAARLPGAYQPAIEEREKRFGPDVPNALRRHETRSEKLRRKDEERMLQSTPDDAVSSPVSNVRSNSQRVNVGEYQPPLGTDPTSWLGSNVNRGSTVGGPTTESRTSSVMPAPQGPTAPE

## CC(=O)Nc1ccc([N+](=O)[O-])c2nonc12 [NBD-A, N-(7-nitro-2,1,3-benzoxadiazol-4-yl) acetamide]
  IC50: 1.46 ± 0.03 µM
